# Values of other authors, collected in patent US20050064563A1, “Nucleic acids for aminocoumarin biosynthesis” (priority 2001, published 2005).
# Molecular target: intact gyrase (bacterial DNA gyrase) (Escherichia coli, UniProt P0AES6)
# Conditions: intact gyrase heterotetramer; Peng et al. (1993) J. Biol. Chem. 268: 24481-24490; read-out: concentration achieving 50% inhibition of gyrase
smiles,measurement,value
CO[C@H]1[C@H](OC(=O)c2ccc(C)[nH]2)[C@H](O)[C@@H](Oc2ccc3c(O)c(NC(=O)c4c[nH]c(C(=O)Nc5c(O)c6ccc(O[C@H]7OC(C)(C)[C@@H](OC)[C@H](OC(=O)c8ccc(C)[nH]8)[C@@H]7O)c(C)c6oc5=O)c4C)c(=O)oc3c2C)OC1(C)C [coumermycin A1],IC50,4 nM
